# Assay results taken from patent publication US10485235B2, “Aryloxypyrimidinyl ethers as herbicides” (FMC Corporation, priority 2015, dated 2019).
# Tested on: pigweed (Amaranthus retroflexus)
# Assay: Test A preemergence, pigweed
# Format: in vivo
# Conditions: Preemergence, 31 g ai/ha; 0 to 100 scale (0 no effect, 100 complete control)
# In short: (§1)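 Approximately 10-day greenhouse assay. Formulated chemical (non-phytotoxic solvent plus surfactant) applied preemergence to soil over seeds or postemergence to plants of 2 to 10 cm. Endpoint: visual percent control, 0–100.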
row,SMILES,"Plant response rating, Pigweed"
1,FCCCOc1c(I)cccc1Oc1ncc(Cl)cn1 [Compound 66],70

# Same assay, conditions: Preemergence, 125 g ai/ha; 0 to 100 scale (0 no effect, 100 complete control)
row,SMILES,"Plant response rating, Pigweed"
1,FCCCOc1c(I)cccc1Oc1ncc(Cl)cn1 [Compound 66],100

# Tested on: foxtail, giant (giant foxtail, Setaria faberii)
# Assay: Test A postemergence, giant foxtail
# Format: in vivo
# Conditions: 31 g ai/ha, postemergence; 0 to 100 scale, 0 is no effect, 100 is complete control; approximately 10 days
# In short: as §1
row,SMILES,"Plant response rating, Foxtail, Giant"
1,FCCCOc1c(I)cccc1Oc1ncc(Cl)cn1 [Compound 66],10

# Same assay, conditions: 125 g ai/ha, postemergence; 0 to 100 scale, 0 is no effect, 100 is complete control; approximately 10 days
row,SMILES,"Plant response rating, Foxtail, Giant"
1,FCCCOc1c(I)cccc1Oc1ncc(Cl)cn1 [Compound 66],30

# Tested on: barnyardgrass (Echinochloa crus-galli)
# Assay: Test A preemergence, barnyardgrass
# Format: in vivo
# Conditions: Preemergence, 31 g ai/ha; 0 to 100 scale (0 no effect, 100 complete control)
# In short: as §1
row,SMILES,"Plant response rating, Barnyardgrass"
1,FCCCOc1c(I)cccc1Oc1ncc(Cl)cn1 [Compound 66],20

# Same assay, conditions: Preemergence, 125 g ai/ha; 0 to 100 scale (0 no effect, 100 complete control)
row,SMILES,"Plant response rating, Barnyardgrass"
1,FCCCOc1c(I)cccc1Oc1ncc(Cl)cn1 [Compound 66],70

# Tested on: ducksalad (Heteranthera limosa)
# Assay: Test B flooded paddy test, ducksalad
# Format: in vivo
# Conditions: 250 g ai/ha, Flood; visual rating after 13 to 15 days; scale 0 to 100, 0 is no effect, 100 is complete control
# In short: (§2)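 Visual ratings, 0 = no effect to 100 = complete control, versus controls after 13 to 15 days in greenhouse. Test compounds were added to paddy water kept 3 cm over the soil surface, on plants at 2-leaf stage.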
row,SMILES,"Plant response rating, Ducksalad"
1,FCCCOc1c(I)cccc1Oc1ncc(Cl)cn1 [Compound 66],100

# Tested on: kochia (Kochia scoparia)
# Assay: Test A postemergence, kochia
# Format: in vivo
# Conditions: 31 g ai/ha, postemergence; 0 to 100 scale, 0 is no effect, 100 is complete control; approximately 10 days
# In short: as §1
row,SMILES,"Plant response rating, Kochia"
1,FCCCOc1c(I)cccc1Oc1ncc(Cl)cn1 [Compound 66],90

# Same assay, conditions: 125 g ai/ha, postemergence; 0 to 100 scale, 0 is no effect, 100 is complete control; approximately 10 days
row,SMILES,"Plant response rating, Kochia"
1,FCCCOc1c(I)cccc1Oc1ncc(Cl)cn1 [Compound 66],100

# Tested on: barnyardgrass (Echinochloa crus-galli)
# Assay: Test A postemergence, barnyardgrass
# Format: in vivo
# Conditions: 31 g ai/ha, postemergence; 0 to 100 scale, 0 is no effect, 100 is complete control; approximately 10 days
# In short: as §1
row,SMILES,"Plant response rating, Barnyardgrass"
1,FCCCOc1c(I)cccc1Oc1ncc(Cl)cn1 [Compound 66],0

# Same assay, conditions: 125 g ai/ha, postemergence; 0 to 100 scale, 0 is no effect, 100 is complete control; approximately 10 days
row,SMILES,"Plant response rating, Barnyardgrass"
1,FCCCOc1c(I)cccc1Oc1ncc(Cl)cn1 [Compound 66],50

# Tested on: galium (catchweed bedstraw, Galium aparine)
# Assay: Test A postemergence, galium
# Format: in vivo
# Conditions: 31 g ai/ha, postemergence; 0 to 100 scale, 0 is no effect, 100 is complete control; approximately 10 days
# In short: as §1
row,SMILES,"Plant response rating, Galium"
1,FCCCOc1c(I)cccc1Oc1ncc(Cl)cn1 [Compound 66],40

# Same assay, conditions: 125 g ai/ha, postemergence; 0 to 100 scale, 0 is no effect, 100 is complete control; approximately 10 days
row,SMILES,"Plant response rating, Galium"
1,FCCCOc1c(I)cccc1Oc1ncc(Cl)cn1 [Compound 66],90

# Tested on: kochia (Kochia scoparia)
# Assay: Test A preemergence, kochia
# Format: in vivo
# Conditions: Preemergence, 31 g ai/ha; 0 to 100 scale (0 no effect, 100 complete control)
# In short: as §1
row,SMILES,"Plant response rating, Kochia"
1,FCCCOc1c(I)cccc1Oc1ncc(Cl)cn1 [Compound 66],0

# Same assay, conditions: Preemergence, 125 g ai/ha; 0 to 100 scale (0 no effect, 100 complete control)
row,SMILES,"Plant response rating, Kochia"
1,FCCCOc1c(I)cccc1Oc1ncc(Cl)cn1 [Compound 66],60

# Tested on: foxtail, giant (giant foxtail, Setaria faberii)
# Assay: Test A preemergence, giant foxtail
# Format: in vivo
# Conditions: Preemergence, 31 g ai/ha; 0 to 100 scale (0 no effect, 100 complete control)
# In short: as §1
row,SMILES,"Plant response rating, Foxtail, Giant"
1,FCCCOc1c(I)cccc1Oc1ncc(Cl)cn1 [Compound 66],50

# Same assay, conditions: Preemergence, 125 g ai/ha; 0 to 100 scale (0 no effect, 100 complete control)
row,SMILES,"Plant response rating, Foxtail, Giant"
1,FCCCOc1c(I)cccc1Oc1ncc(Cl)cn1 [Compound 66],100

# Tested on: barnyardgrass (Echinochloa crus-galli)
# Assay: Test B flooded paddy test, barnyardgrass
# Format: in vivo
# Conditions: 250 g ai/ha, Flood; visual rating after 13 to 15 days; scale 0 to 100, 0 is no effect, 100 is complete control
# In short: as §2
row,SMILES,"Plant response rating, Barnyardgrass"
1,FCCCOc1c(I)cccc1Oc1ncc(Cl)cn1 [Compound 66],0

# Tested on: ryegrass, Italian (Italian ryegrass, Lolium multiflorum)
# Assay: Test A postemergence, Italian ryegrass
# Format: in vivo
# Conditions: 31 g ai/ha, postemergence; 0 to 100 scale, 0 is no effect, 100 is complete control; approximately 10 days
# In short: as §1
row,SMILES,"Plant response rating, Ryegrass, Italian"
1,FCCCOc1c(I)cccc1Oc1ncc(Cl)cn1 [Compound 66],0

# Same assay, conditions: 125 g ai/ha, postemergence; 0 to 100 scale, 0 is no effect, 100 is complete control; approximately 10 days
row,SMILES,"Plant response rating, Ryegrass, Italian"
1,FCCCOc1c(I)cccc1Oc1ncc(Cl)cn1 [Compound 66],20

# Tested on: blackgrass (Alopecurus myosuroides)
# Assay: Test A postemergence, blackgrass
# Format: in vivo
# Conditions: 31 g ai/ha, postemergence; 0 to 100 scale, 0 is no effect, 100 is complete control; approximately 10 days
# In short: as §1
row,SMILES,"Plant response rating, Blackgrass"
1,FCCCOc1c(I)cccc1Oc1ncc(Cl)cn1 [Compound 66],10

# Same assay, conditions: 125 g ai/ha, postemergence; 0 to 100 scale, 0 is no effect, 100 is complete control; approximately 10 days
row,SMILES,"Plant response rating, Blackgrass"
1,FCCCOc1c(I)cccc1Oc1ncc(Cl)cn1 [Compound 66],30

# Tested on: ragweed (common ragweed, Ambrosia elatior)
# Assay: Test A preemergence, ragweed
# Format: in vivo
# Conditions: Preemergence, 31 g ai/ha; 0 to 100 scale (0 no effect, 100 complete control)
# In short: as §1
row,SMILES,"Plant response rating, Ragweed"
1,FCCCOc1c(I)cccc1Oc1ncc(Cl)cn1 [Compound 66],0

# Same assay, conditions: Preemergence, 125 g ai/ha; 0 to 100 scale (0 no effect, 100 complete control)
row,SMILES,"Plant response rating, Ragweed"
1,FCCCOc1c(I)cccc1Oc1ncc(Cl)cn1 [Compound 66],0

# Tested on: sedge, umbrella (small-flower umbrella sedge, Cyperus difformis)
# Assay: Test B flooded paddy test, umbrella sedge
# Format: in vivo
# Conditions: 250 g ai/ha, Flood; visual rating after 13 to 15 days; scale 0 to 100, 0 is no effect, 100 is complete control
# In short: as §2
row,SMILES,"Plant response rating, Sedge, Umbrella"
1,FCCCOc1c(I)cccc1Oc1ncc(Cl)cn1 [Compound 66],100

# Tested on: ragweed (common ragweed, Ambrosia elatior)
# Assay: Test A postemergence, ragweed
# Format: in vivo
# Conditions: 31 g ai/ha, postemergence; 0 to 100 scale, 0 is no effect, 100 is complete control; approximately 10 days
# In short: as §1
row,SMILES,"Plant response rating, Ragweed"
1,FCCCOc1c(I)cccc1Oc1ncc(Cl)cn1 [Compound 66],0

# Same assay, conditions: 125 g ai/ha, postemergence; 0 to 100 scale, 0 is no effect, 100 is complete control; approximately 10 days
row,SMILES,"Plant response rating, Ragweed"
1,FCCCOc1c(I)cccc1Oc1ncc(Cl)cn1 [Compound 66],0

# Tested on: rice (Oryza sativa)
# Assay: Test B flooded paddy test, rice
# Format: in vivo
# Conditions: 250 g ai/ha, Flood; visual rating after 13 to 15 days; scale 0 to 100, 0 is no effect, 100 is complete control
# In short: as §2
row,SMILES,"Plant response rating, Rice"
1,FCCCOc1c(I)cccc1Oc1ncc(Cl)cn1 [Compound 66],20

# Tested on: corn (Zea mays)
# Assay: Test A postemergence, corn
# Format: in vivo
# Conditions: 31 g ai/ha, postemergence; 0 to 100 scale, 0 is no effect, 100 is complete control; approximately 10 days
# In short: as §1
row,SMILES,"Plant response rating, Corn"
1,FCCCOc1c(I)cccc1Oc1ncc(Cl)cn1 [Compound 66],0

# Same assay, conditions: 125 g ai/ha, postemergence; 0 to 100 scale, 0 is no effect, 100 is complete control; approximately 10 days
row,SMILES,"Plant response rating, Corn"
1,FCCCOc1c(I)cccc1Oc1ncc(Cl)cn1 [Compound 66],30

# Tested on: ryegrass, Italian (Italian ryegrass, Lolium multiflorum)
# Assay: Test A preemergence, Italian ryegrass
# Format: in vivo
# Conditions: Preemergence, 31 g ai/ha; 0 to 100 scale (0 no effect, 100 complete control)
# In short: as §1
row,SMILES,"Plant response rating, Ryegrass, Italian"
1,FCCCOc1c(I)cccc1Oc1ncc(Cl)cn1 [Compound 66],0

# Same assay, conditions: Preemergence, 125 g ai/ha; 0 to 100 scale (0 no effect, 100 complete control)
row,SMILES,"Plant response rating, Ryegrass, Italian"
1,FCCCOc1c(I)cccc1Oc1ncc(Cl)cn1 [Compound 66],10

# Tested on: pigweed (Amaranthus retroflexus)
# Assay: Test A postemergence, pigweed
# Format: in vivo
# Conditions: 31 g ai/ha, postemergence; 0 to 100 scale, 0 is no effect, 100 is complete control; approximately 10 days
# In short: as §1
row,SMILES,"Plant response rating, Pigweed"
1,FCCCOc1c(I)cccc1Oc1ncc(Cl)cn1 [Compound 66],90

# Same assay, conditions: 125 g ai/ha, postemergence; 0 to 100 scale, 0 is no effect, 100 is complete control; approximately 10 days
row,SMILES,"Plant response rating, Pigweed"
1,FCCCOc1c(I)cccc1Oc1ncc(Cl)cn1 [Compound 66],100

# Tested on: wheat (Triticum aestivum)
# Assay: Test A postemergence, wheat
# Format: in vivo
# Conditions: 31 g ai/ha, postemergence; 0 to 100 scale, 0 is no effect, 100 is complete control; approximately 10 days
# In short: as §1
row,SMILES,"Plant response rating, Wheat"
1,FCCCOc1c(I)cccc1Oc1ncc(Cl)cn1 [Compound 66],0

# Same assay, conditions: 125 g ai/ha, postemergence; 0 to 100 scale, 0 is no effect, 100 is complete control; approximately 10 days
row,SMILES,"Plant response rating, Wheat"
1,FCCCOc1c(I)cccc1Oc1ncc(Cl)cn1 [Compound 66],0
